# Measured values reported in the supplement of paper PMC10307832.
# Legend:
# Experiment in all cases: relative viability (nuclei count vs DMSO), 5 days (fraction); higher = more cells survive
# 201T = system: 201T
# Summary of the method: (§1)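 A single step with final 0.05% Triton X-100, 1% formaldehyde and 1 ug/ml Hoechst fixed the cells and stained nuclei 5 days after treatment. Lung cancer cell lines in 1536-well plates had been treated by pin tool the day after seeding with one drug alone or a fixed anchor-drug dose plus five library-drug doses (not always all listed) in √10 steps, and nuclei were counted on 4× images. Relative viability is the ratio of nuclei in treated wells to nuclei in vehicle wells, taken as the median of duplicate plates.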
# ABC-1 = system: ABC-1
# Summary of the method: as §1
# CAL-12T = system: CAL-12T
# Summary of the method: as §1
# COR-L23 = system: COR-L23
# Summary of the method: as §1
# ChaGo-K-1 = system: ChaGo-K-1
# Summary of the method: as §1
# HOP-62 = system: HOP-62
# Summary of the method: as §1
# LC-2-ad = system: LC-2-ad
# Summary of the method: as §1
# LCLC-103H = system: LCLC-103H
# Summary of the method: as §1
# NCI-H1355 = system: NCI-H1355
# Summary of the method: as §1
# NCI-H1395 = system: NCI-H1395
# Summary of the method: as §1
# NCI-H1651 = system: NCI-H1651
# Summary of the method: as §1
# NCI-H1666 = system: NCI-H1666
# Summary of the method: as §1
# NCI-H1993 = system: NCI-H1993
# Summary of the method: as §1
# NCI-H2085 = system: NCI-H2085
# Summary of the method: as §1
# NCI-H2170 = system: NCI-H2170
# Summary of the method: as §1
# NCI-H2228 = system: NCI-H2228
# Summary of the method: as §1
# NCI-H2342 = system: NCI-H2342
# Summary of the method: as §1
# NCI-H2347 = system: NCI-H2347
# Summary of the method: as §1
# NCI-H23 = system: NCI-H23
# Summary of the method: as §1
# NCI-H322M = system: NCI-H322M
# Summary of the method: as §1
# NCI-H520 = system: NCI-H520
# Summary of the method: as §1
# NCI-H647 = system: NCI-H647
# Summary of the method: as §1
# NCI-H661 = system: NCI-H661
# Summary of the method: as §1
# NCI-H838 = system: NCI-H838
# Summary of the method: as §1
compound,measurement,setting,value
CCCCCCCCCCCC1=C(O)C(=O)C=C(O)C1=O [Embelin] + Cc1nc(Nc2ncc(C(=O)Nc3c(C)cccc3Cl)s2)cc(N2CCN(CCO)CC2)n1 [Dasatinib] (partner 0.075 µM),relative viability,201T; first compound 0.08 µM,0.562
same,relative viability,201T; first compound 0.8 µM,0.641
same,relative viability,201T; first compound 2.53 µM,0.519
same,relative viability,201T; first compound 8 µM,0.613
same,relative viability,ABC-1; first compound 0.08 µM,0.575
same,relative viability,ABC-1; first compound 0.8 µM,0.657
same,relative viability,ABC-1; first compound 2.53 µM,0.528
same,relative viability,ABC-1; first compound 8 µM,0.53
same,relative viability,CAL-12T; first compound 0.08 µM,0.414
same,relative viability,CAL-12T; first compound 0.8 µM,0.522
same,relative viability,CAL-12T; first compound 2.53 µM,0.481
same,relative viability,CAL-12T; first compound 8 µM,0.539
same,relative viability,COR-L23; first compound 0.08 µM,0.486
same,relative viability,COR-L23; first compound 0.8 µM,0.55
same,relative viability,COR-L23; first compound 2.53 µM,0.458
same,relative viability,COR-L23; first compound 8 µM,0.562
same,relative viability,ChaGo-K-1; first compound 0.08 µM,0.501
same,relative viability,ChaGo-K-1; first compound 0.8 µM,0.576
same,relative viability,ChaGo-K-1; first compound 2.53 µM,0.585
same,relative viability,ChaGo-K-1; first compound 8 µM,0.582
same,relative viability,HOP-62; first compound 0.08 µM,0.66
same,relative viability,HOP-62; first compound 0.8 µM,0.776
same,relative viability,HOP-62; first compound 2.53 µM,0.68
same,relative viability,HOP-62; first compound 8 µM,0.654
same,relative viability,LC-2-ad; first compound 0.08 µM,0.596
same,relative viability,LC-2-ad; first compound 0.8 µM,0.837
same,relative viability,LC-2-ad; first compound 2.53 µM,0.823
same,relative viability,LC-2-ad; first compound 8 µM,0.412
same,relative viability,LCLC-103H; first compound 0.08 µM,0.453
same,relative viability,LCLC-103H; first compound 0.8 µM,0.517
same,relative viability,LCLC-103H; first compound 2.53 µM,0.511
same,relative viability,LCLC-103H; first compound 8 µM,0.405
same,relative viability,NCI-H1355; first compound 0.08 µM,0.753
same,relative viability,NCI-H1355; first compound 0.8 µM,0.808
same,relative viability,NCI-H1355; first compound 2.53 µM,0.845
same,relative viability,NCI-H1355; first compound 8 µM,0.586
same,relative viability,NCI-H1395; first compound 0.08 µM,0.393
same,relative viability,NCI-H1395; first compound 0.8 µM,0.484
same,relative viability,NCI-H1395; first compound 2.53 µM,0.404
same,relative viability,NCI-H1395; first compound 8 µM,0.352
same,relative viability,NCI-H1651; first compound 0.08 µM,0.388
same,relative viability,NCI-H1651; first compound 0.8 µM,0.508
same,relative viability,NCI-H1651; first compound 2.53 µM,0.438
same,relative viability,NCI-H1651; first compound 8 µM,0.335
same,relative viability,NCI-H1666; first compound 0.08 µM,0.793
same,relative viability,NCI-H1666; first compound 0.8 µM,0.88
same,relative viability,NCI-H1666; first compound 2.53 µM,0.839
same,relative viability,NCI-H1666; first compound 8 µM,0.852
same,relative viability,NCI-H1993; first compound 0.08 µM,0.641
same,relative viability,NCI-H1993; first compound 0.8 µM,0.602
same,relative viability,NCI-H1993; first compound 2.53 µM,0.535
same,relative viability,NCI-H1993; first compound 8 µM,0.509
same,relative viability,NCI-H2085; first compound 0.08 µM,0.253
same,relative viability,NCI-H2085; first compound 0.8 µM,0.246
same,relative viability,NCI-H2085; first compound 2.53 µM,0.227
same,relative viability,NCI-H2085; first compound 8 µM,0.209
same,relative viability,NCI-H2170; first compound 0.08 µM,0.649
same,relative viability,NCI-H2170; first compound 0.8 µM,0.806
same,relative viability,NCI-H2170; first compound 2.53 µM,0.694
same,relative viability,NCI-H2170; first compound 8 µM,0.533
same,relative viability,NCI-H2228; first compound 0.08 µM,0.503
same,relative viability,NCI-H2228; first compound 0.8 µM,0.618
same,relative viability,NCI-H2228; first compound 2.53 µM,0.592
same,relative viability,NCI-H2228; first compound 8 µM,0.396
same,relative viability,NCI-H2342; first compound 0.08 µM,0.288
same,relative viability,NCI-H2342; first compound 0.8 µM,0.346
same,relative viability,NCI-H2342; first compound 2.53 µM,0.326
same,relative viability,NCI-H2342; first compound 8 µM,0.342
same,relative viability,NCI-H2347; first compound 0.08 µM,0.332
same,relative viability,NCI-H2347; first compound 0.8 µM,0.33
same,relative viability,NCI-H2347; first compound 2.53 µM,0.296
same,relative viability,NCI-H2347; first compound 8 µM,0.309
same,relative viability,NCI-H23; first compound 0.08 µM,0.82
same,relative viability,NCI-H23; first compound 0.8 µM,0.755
same,relative viability,NCI-H23; first compound 2.53 µM,1.08
same,relative viability,NCI-H23; first compound 8 µM,0.612
same,relative viability,NCI-H322M; first compound 0.08 µM,0.26
same,relative viability,NCI-H322M; first compound 0.8 µM,0.263
same,relative viability,NCI-H322M; first compound 2.53 µM,0.261
same,relative viability,NCI-H322M; first compound 8 µM,0.232
same,relative viability,NCI-H520; first compound 0.08 µM,0.245
same,relative viability,NCI-H520; first compound 0.8 µM,0.188
same,relative viability,NCI-H520; first compound 2.53 µM,0.307
same,relative viability,NCI-H520; first compound 8 µM,0.132
same,relative viability,NCI-H647; first compound 0.08 µM,0.214
same,relative viability,NCI-H647; first compound 0.8 µM,0.242
same,relative viability,NCI-H647; first compound 2.53 µM,0.123
same,relative viability,NCI-H647; first compound 8 µM,0.14
same,relative viability,NCI-H661; first compound 0.08 µM,0.852
same,relative viability,NCI-H661; first compound 0.8 µM,1.08
same,relative viability,NCI-H661; first compound 2.53 µM,0.99
same,relative viability,NCI-H661; first compound 8 µM,0.703
same,relative viability,NCI-H838; first compound 0.08 µM,0.312
same,relative viability,NCI-H838; first compound 0.8 µM,0.316
same,relative viability,NCI-H838; first compound 2.53 µM,0.248
same,relative viability,NCI-H838; first compound 8 µM,0.224
